# pKi: −log10 of the molar value. Positions of bridges follow the written chain, without caps; N, C: chain ends. Residues, ends and D or L forms follow the SMILES beside them.
# How the values were obtained:
# [1] = biological target: T1, human Growth Hormone Receptor (hGHR) (Homo sapiens, UniProt P10912); assay: Growth Hormone proliferation assay (hGH-stimulated BaF3 cell proliferation, MTT); assay type: cell-based; settings: inhibition of BaF3 cell proliferation in response to 0.5 ng/mL hGH; read-out: calculated Ki
# T1 construct: expressed in transfected cells; host or cells: BaF-B03 (BaF3) pro-B cells
# T1 sequence (P10912 19-638): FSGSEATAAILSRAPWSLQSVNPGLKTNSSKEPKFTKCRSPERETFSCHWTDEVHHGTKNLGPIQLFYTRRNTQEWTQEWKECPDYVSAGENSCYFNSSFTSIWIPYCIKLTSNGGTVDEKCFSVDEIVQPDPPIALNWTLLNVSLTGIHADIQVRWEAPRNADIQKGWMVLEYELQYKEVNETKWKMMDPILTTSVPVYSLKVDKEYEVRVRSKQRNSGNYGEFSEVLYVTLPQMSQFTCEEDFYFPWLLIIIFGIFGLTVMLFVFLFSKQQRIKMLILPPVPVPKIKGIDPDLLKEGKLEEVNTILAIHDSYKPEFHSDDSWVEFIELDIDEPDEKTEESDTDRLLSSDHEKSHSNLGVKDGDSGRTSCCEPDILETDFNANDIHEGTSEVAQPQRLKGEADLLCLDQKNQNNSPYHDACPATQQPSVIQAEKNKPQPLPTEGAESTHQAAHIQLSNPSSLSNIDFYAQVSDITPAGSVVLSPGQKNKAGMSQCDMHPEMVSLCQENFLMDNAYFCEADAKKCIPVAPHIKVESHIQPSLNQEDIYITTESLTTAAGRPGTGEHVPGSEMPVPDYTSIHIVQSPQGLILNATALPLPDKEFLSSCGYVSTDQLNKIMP
# Experimental: SCY01 was tested for biological function by bioassay using the BaF3 cell line, which cells normally respond to GH. SCY01 was assayed at various concentrations to check its ability to inhibit BaF3 cell proliferation in response to either 0.5 ng/mL hGH, or as a control, 50 Units/mL IL-3.
# BaF-B03 cells (a pro B cell line) that stably express the human Growth Hormone Receptor (hGHR) are used in this assay since they are able to elicit a GH-specific response at concentrations as low as 0.1 ng/mL hGH (4.54 pM). These cells also endogenously express the IL3 receptor and require IL3 or GM-CSF to survive in culture. The assay is based on that of Mossman, 1983, J. Immunol. Meth. 65 55, and involves the following procedure:— • (i) culture cells in RPMI-1640 medium supplemented with 10% (v/v) foetal bovine serum (FBS) and 100 units/mL IL3 under 5% CO2 at 37° C. Allow the culture to reach mid-log growth phase; • (ii) centrifuge cells at 500×g and wash with PBS to remove IL3 from the culture medium. Repeat the centrifugation and resuspend in 1 mL of RPMI-1640 plus 0.5% (v/v) FBS. […] Allow plate to rest in the dark for 5 minutes before reading; • (x) read plate at 595 nm on a microplate reader. Values obtained are directly proportional to cell number (as measured by mitochondrial dehydrogenase levels).
# [2] = Blood serum stability test (RP-HPLC); assay type: in vitro ADME; settings: 37° C.
# Description: Preliminary studies evaluated the bioavailability of SCY01 by exposing it to a variety of proteases (trypsin, chymotrypsin and pepsin) and blood serum proteins as described in MATERIALS AND METHODS. The results of the blood serum stability test are presented in Table 2, and the results of the enzyme stability tests are presented in Table 3. […] Thus emphasising the favourable chemical characteristics of disulfide-rich proteins.
# Blood was collected in heparinised tubes by venapuncture. The blood was centrifuged at 5000 rpm for 20 mins and the serum decanted. The blood serum was stored at −20° C. A sample of the blood serum (900 μL) was incubated with 100 μL of the stock peptide solution (1 mg/mL in H2O) at 37° C. and aliquots (100 μL) removed at the required time. A solution of 50% CH3CN 0.1% TFA was added to precipitate the blood serum proteins and centrifuged at 13000 rpm for 5 mins. A sample of this solution (100 μL) was analysed by RP-HPLC (Vydac C18 218TP54 250×4.1 mm id 1%/min gradient H2O/CH3CN 0.1% TFA) to detect peptide digestion.
# trypsin = assay: Enzyme stability test, trypsin; assay type: in vitro ADME; settings: trypsin 5% w:v, NH4HCO3 pH 8.3, 37° C.
# Experimental: To the peptide solution (NH4HCO3, pH 8.3, 0.87 mg/mL) was added trypsin (5% w:v). Samples were incubated at 37° C. and aliquots removed at 0, 1, 3 and 18 hrs and analysed by RP-HPLC as above.
# α-chymotrypsin = assay: Enzyme stability test, chymotrypsin; assay type: in vitro ADME; settings: chymotrypsin 5% w:v, NH4HCO3 pH 8.3, 37° C.
# Experimental: To the stock peptide solution (100 μL) was added 900 μL NH4HCO3 (pH 8.3). Chymotrypsin was added to 5% w:v and incubated at 37° C. Aliquots were removed at 0 hr, 1 hr and 24 hrs and analysed by RP HPLC.
# pepsin = assay: Enzyme stability test, pepsin; assay type: in vitro ADME; settings: pepsin 1% w:v, pH 2.2, 37° C.
# Experimental: To the stock peptide solution (100 μL) was added H2O (800 μL) and 0.1 M HCl (100 μL) to pH 2.2. Pepsin was added to give a 1% w:v solution and incubated at 37° C. Aliquots were removed at 0 h, 1 h and 24 hrs and analysed by RP-HPLC.
smiles,measurement,setting,value
"CC[C@H](C)[C@@H]1NC(=O)[C@@H]2CSSC[C@H](NC(=O)[C@H](Cc3ccccc3)NC(=O)[C@H](C)N)C(=O)N[C@@H](CC(N)=O)C(=O)N[C@@H](CC(C)C)C(=O)N[C@@H](CCCNC(=N)N)C(=O)N[C@@H](CCCCN)C(=O)N[C@H]3CSSC[C@H](NC(=O)[C@H](CCCCN)NC(=O)[C@H](CC(=O)O)NC(=O)CNC1=O)C(=O)N[C@@H](CCC(=O)O)C(=O)N[C@H](C(=O)N[C@H](C(=O)N[C@@H](CCCCN)C(N)=O)C(C)C)CSSC[C@H](NC(=O)[C@H](CCCCN)NC(=O)[C@H](CC(=O)O)NC(=O)[C@H](CCC(N)=O)NC3=O)C(=O)N[C@@H](CCC(=O)O)C(=O)N[C@@H]([C@@H](C)O)C(=O)N[C@@H](Cc1ccccc1)C(=O)NCC(=O)N[C@@H](CC(C)C)C(=O)N[C@@H](CC(C)C)C(=O)NCC(=O)N[C@@H](CCCCN)C(=O)N2 [SCY01] (H-AFCNLRKCQDKCETFGLLGKCIGDKCECVK-NH2; disulfide 3-21, 8-26, 12-28)",pKi,[1],~3.70
same,"Blood serum stability test result, 0 hr",[2]; 0 hr,stable
same,"Blood serum stability test result, 1 hr",[2]; 1 hr,stable
same,"Blood serum stability test result, 24 hrs",[2]; 24 hrs,stable
same,"Enzyme stability test result, trypsin",trypsin,Stable over 18 hrs
same,"Enzyme stability test result, α-chymotrypsin",α-chymotrypsin,Stable over 18 hrs
same,"Enzyme stability test result, pepsin",pepsin,Stable over 18 hrs

# Reference: patent US7092825B1, “Protein engineering” (The University of Queensland, priority 1998, dated 2006)
